This note sets out measurements from ChEMBL document CHEMBL5150050, “Hybrids of small CD4 mimics and gp41-related peptides as dual-target HIV entry inhibitors” (Bioorg Med Chem, 2022).

Where a SMILES comes first, the peptide text is derived from it. [ ]: non-standard residue; d: D form. Nle = CCCC[C@H](N)C(=O)O

The test system of one data set is TZM. Kind of data set: Cytotoxicity against human TZM-bl cells. The class given is toxicity, cell-based.
The subject of data set [1] is Human immunodeficiency virus 1. Kind of data set: Antiviral activity against HIV-1 KP-5mvcR infected in human TZM-bl cells assessed as inhibition of viral entry by measuring reduction in RLU by single round assay. It counts as functional, organism-based. To be noted: Human immunodeficiency virus 1, KP-5mvcR.
The test system of data set [2] is Human immunodeficiency virus 1. As to the kind of experiment: Antiviral activity against HIV-1 KP-5mvcR infected in human TZM-bl cells assessed as inhibition of viral entry by measuring reduction in RLU at 10 nM by single round assay relative to control. The class given is functional. Also on record: scale not given: the % may be the effect or the level left.

The term IC50 denotes the concentration that gives 50% inhibition.

Consider `N=C(N)NCCCCC(=O)NCCN1CCC(NC(=O)C(=O)Nc2ccc(Cl)cc2)CC1`, for which the Activity result in the data set on TZM is listed as “Non-Toxic”. Besides, in data set [1], the IC50 worked out at 145 nM.

Take `CC[C@H](C)[C@H](NC(=O)[C@H](CCCCN)NC(=O)[C@H](CCCCN)NC(=O)[C@H](CC(=O)O)NC(=O)[C@H](Cc1c[nH]c2ccccc12)NC(=O)[C@H](CCC(=O)O)NC(=O)[C@H](CCC(=O)O)NC(=O)[C@H](Cc1c[nH]c2ccccc12)NC(C)=O)C(=O)N[C@@H](CCC(=O)O)C(=O)N[C@@H](CCC(=O)O)C(=O)N[C@@H](Cc1ccc(O)cc1)C(=O)N[C@H](C(=O)N[C@@H](CCCCN)C(=O)N[C@@H](CCCCN)C(=O)N[C@H](C(=O)N[C@@H](CCC(=O)O)C(=O)N[C@@H](CCC(=O)O)C(=O)N[C@@H](CC(C)C)C(=O)N[C@H](C(=O)N[C@@H](CCCCN)C(=O)N[C@@H](CCCCN)C(=O)N[C@@H](CO)C(=O)N[C@H](CSCC(=O)NCCCC[C@H](NC(=O)[C@H](CO)NC(=O)CNC(=O)CNC(=O)CNC(=O)CNC(=O)CCC(=O)N[C@@H](CCCNC(=N)N)C(=O)NCCN1CCC(NC(=O)C(=O)Nc2ccc(Cl)cc2)CC1)C(N)=O)C(N)=O)[C@@H](C)CC)[C@@H](C)CC)[C@@H](C)O`: in data set [1], the IC50 came to 150 nM.

Consider `CCCC[C@H](NC(=O)[C@H](Cc1c[nH]c2ccccc12)NC(C)=O)C(=O)N[C@@H](CCC(=O)O)C(=O)N[C@@H](Cc1c[nH]c2ccccc12)C(=O)N[C@@H](CC(=O)O)C(=O)N[C@@H](CCCNC(=N)N)C(=O)N[C@@H](CCCCN)C(=O)N[C@H](C(=O)N[C@@H](CCC(=O)O)C(=O)N[C@@H](CCC(=O)O)C(=O)N[C@@H](Cc1ccc(O)cc1)C(=O)N[C@H](C(=O)N[C@@H](CCCCN)C(=O)N[C@@H](CCCCN)C(=O)N[C@H](C(=O)N[C@@H](CCCCN)C(=O)N[C@@H](CCCCN)C(=O)N[C@@H](CC(C)C)C(=O)N[C@H](C(=O)N[C@@H](CCC(=O)O)C(=O)N[C@@H](CCC(=O)O)C(=O)N[C@@H](CO)C(=O)N[C@@H](CCC(N)=O)C(=O)N[C@@H](CCC(=O)O)C(=O)N[C@@H](CCC(N)=O)C(=O)N[C@@H](CCC(N)=O)C(=O)N[C@@H](CCC(=O)O)C(=O)N[C@@H](CCCCN)C(=O)N[C@@H](CC(N)=O)C(=O)N[C@@H](CCC(=O)O)C(=O)N[C@@H](CCCCN)C(=O)N[C@@H](CCC(=O)O)C(=O)N[C@@H](CC(C)C)C(=O)N[C@@H](CCCCN)C(=O)N[C@H](CSCC(=O)NCc1cn(CCCC[C@H](NC(=O)[C@H](CO)NC(=O)CNC(=O)CNC(=O)CNC(=O)CNC(=O)CCC(=O)N[C@@H](CCCNC(=N)N)C(=O)NCCN2CCC(NC(=O)C(=O)Nc3ccc(Cl)cc3)CC2)C(N)=O)nn1)C(N)=O)[C@@H](C)CC)[C@@H](C)CC)[C@@H](C)O)[C@@H](C)CC`, for which the IC50 in data set [1] worked out at 5.5 nM.

With `CCCC[C@H](NC(=O)[C@H](Cc1c[nH]c2ccccc12)NC(C)=O)C(=O)N[C@@H](CCC(=O)O)C(=O)N[C@@H](Cc1c[nH]c2ccccc12)C(=O)N[C@@H](CC(=O)O)C(=O)N[C@@H](CCCNC(=N)N)C(=O)N[C@@H](CCCCN)C(=O)N[C@H](C(=O)N[C@@H](CCC(=O)O)C(=O)N[C@@H](CCC(=O)O)C(=O)N[C@@H](Cc1ccc(O)cc1)C(=O)N[C@H](C(=O)N[C@@H](CCCCN)C(=O)N[C@@H](CCCCN)C(=O)N[C@H](C(=O)N[C@@H](CCCCN)C(=O)N[C@@H](CCCCN)C(=O)N[C@@H](CC(C)C)C(=O)N[C@H](C(=O)N[C@@H](CCC(=O)O)C(=O)N[C@@H](CCC(=O)O)C(=O)N[C@@H](CO)C(=O)N[C@@H](CCC(N)=O)C(=O)N[C@@H](CCC(=O)O)C(=O)N[C@@H](CCC(N)=O)C(=O)N[C@@H](CCC(N)=O)C(=O)N[C@@H](CCC(=O)O)C(=O)N[C@@H](CCCCN)C(=O)N[C@@H](CC(N)=O)C(=O)N[C@@H](CCC(=O)O)C(=O)N[C@@H](CCCCN)C(=O)N[C@@H](CCC(=O)O)C(=O)N[C@@H](CC(C)C)C(=O)N[C@@H](CCCCN)C(=O)N[C@H](CSCC(=O)NCCCC[C@H](NC(=O)[C@H](CO)NC(=O)CNC(=O)CNC(=O)CNC(=O)CNC(=O)CCC(=O)N[C@@H](CCCNC(=N)N)C(=O)NCCN1CCC(NC(=O)C(=O)Nc2ccc(Cl)cc2)CC1)C(N)=O)C(N)=O)[C@@H](C)CC)[C@@H](C)CC)[C@@H](C)O)[C@@H](C)CC`, the Activity in data set [2] worked out at 95.6%. Besides, the IC50 in data set [1] was less than 10 nM.

`CCCC[C@H](NC(=O)[C@H](Cc1c[nH]c2ccccc12)NC(C)=O)C(=O)N[C@@H](CCC(=O)O)C(=O)N[C@@H](Cc1c[nH]c2ccccc12)C(=O)N[C@@H](CC(=O)O)C(=O)N[C@@H](CCCNC(=N)N)C(=O)N[C@@H](CCCCN)C(=O)N[C@H](C(=O)N[C@@H](CCC(=O)O)C(=O)N[C@@H](CCC(=O)O)C(=O)N[C@@H](Cc1ccc(O)cc1)C(=O)N[C@H](C(=O)N[C@@H](CCCCN)C(=O)N[C@@H](CCCCN)C(=O)N[C@H](C(=O)N[C@@H](CCCCN)C(=O)N[C@@H](CCCCN)C(=O)N[C@@H](CC(C)C)C(=O)N[C@H](C(=O)N[C@@H](CCC(=O)O)C(=O)N[C@@H](CCC(=O)O)C(=O)N[C@@H](CO)C(=O)N[C@@H](CCC(N)=O)C(=O)N[C@@H](CCC(=O)O)C(=O)N[C@@H](CCC(N)=O)C(=O)N[C@@H](CCC(N)=O)C(=O)N[C@@H](CCC(=O)O)C(=O)N[C@@H](CCCCN)C(=O)N[C@@H](CC(N)=O)C(=O)N[C@@H](CCC(=O)O)C(=O)N[C@@H](CCCCN)C(=O)N[C@@H](CCC(=O)O)C(=O)N[C@@H](CC(C)C)C(=O)N[C@@H](CCCCN)C(N)=O)[C@@H](C)CC)[C@@H](C)CC)[C@@H](C)O)[C@@H](C)CC` (Ac-W[Nle]EWDRKIEEYTKKIKKLIEESQEQQEKNEKELK-NH2): in the data set on TZM, the Activity result was “Non-Toxic”. For the same compound, the IC50 in data set [1] was 0.64 nM.

As to `O=C1Nc2ccc(Cl)cc2[C@@](C#CC2CC2)(C(F)(F)F)O1` [EFAVIRENZ], the IC50 in data set [1] worked out at 11 nM.

Regarding Ac-WEEWDKKIEEYTKKIEELIKKS-NH2, the Activity entry with TZM was “Non-Toxic”. The IC50 in data set [1] is 60 nM.

Take enfuvirtide: in data set [1], the IC50 was 32 nM.
